What all share (type): biochemical
Experiment [1] addresses Mushroom tyrosinase (EC.1.14.18.1) (Agaricus bisporus, UniProt C7FF04). Description: Tyrosinase inhibition assay (L-tyrosine substrate). The procedure: In brief, the assay was carried out in 0.05 mol L^−1 phosphate buffer pH 6.8. Mushroom tyrosinase (EC.1.14.18.1) was dissolved in the buffer to a concentration of 100 units mL^−1. L-tyrosine, an enzyme substrate, was prepared to a concentration of 0.25 mg mL^−1 in the buffer. […] Into a well of 96-well plates, 10 µl sample and 40 µl L-tyrosine solution were mixed and incubated for 10 min at room temperature. After that 50 µl enzyme solution was inoculated and mixed thoroughly. The reaction was stopped afterward by incubation on ice for 1 min. […] The percentage inhibition (%) was calculated by the equation as follows:
%Inhibition={1–(Asam,10–Asam,0)÷(Acont,10–Acont,0)}×100.

The target of experiment [2] is porcine pancreatic elastase (EC.3.4.21.36) (Sus scrofa, UniProt P00772). The experiment is described as follows: Elastase inhibition assay (SANA substrate). As to the method:
The assay according to [Abhijit & Manjushree (2010)] was applied with some modifications. Briefly, the buffer system was 0.2 mM Tris-HCl buffer (pH 8.0). A solution of 1 µg mL^−1 porcine pancreatic elastase (EC.3.4.21.36) was prepared in sterile water. The enzyme substrate, N-Succinyl-Ala-Ala-Ala-p-nitroanilide (SANA), was dissolved in the buffer to a concentration of 80 mmol L^−1. A sample dissolved in DMSO was diluted to various concentrations by using the buffer. A 100-µl sample solution was mixed with 50 µl enzyme solution and incubated for 15 min. After that 50 µl of the enzyme substrate solution was added and thoroughly mixed. The OD410 was measured immediately (0 min) and after incubation overnight (o/n) at 37 °C by using a microplate reader. Ursolic acid was used as a positive control (Fig. 1), and water was used as a negative control. The percentage inhibition (%) was calculated by the following equation:
%Inhibition={1–[(Asam,o/n–Asam,0)÷(Acont,o/n–Acont,0)]}×100.

The subject of experiment [3] is Collagenase from Clostridium histolyticum (EC.3.4.24.3). Description: Collagenase inhibition assay (fluorogenic peptide substrate). As to the method: The recent anti-collagenase assay was modified from that previously described by [Widyowati et al. (2016)]. In brief, 50 mmol L^−1 tricine buffer pH 7.5 supplemented with 400 mmol L^−1 NaCl and 10 mmol L^−1 CaCl2 was used as the buffering diluent. Collagenase from Clostridium histolyticum (EC.3.4.24.3) was dissolved in the buffer to a concentration of 1 mg L^−1. The enzyme substrate, MOCAc-PRO-Leu-Gly-Leu-A2pr (Dnp)-Ala-Arg-NH2, was prior dissolved in DMSO and subsequently diluted in the buffer to a concentration of 1 mmol L^−1. A sample dissolved in DMSO was diluted to different concentrations by using the buffer. A 2-µl sample solution was incubated with 100 µl enzyme solution at 37 °C for 10 min. Then, a 50-µl substrate was added and thoroughly mixed. Fluorescence emission (F) at 405 nm was immediately recorded and continually monitored for 30 min using a wavelength of 320 nm for excitation. Caffeic acid was used as a position control (Fig. 1). Negative control was performed with water. The percent inhibition (%) was calculated from the equation below:
%Inhibition={1–(Fsam,30–Fsam,0)÷(Fcont,30–Fcont,0)}×100.

The source of these data is publication PMC8231342, “Potency of bisresorcinol from Heliciopsis terminalis on skin aging: in vitro bioactivities and molecular interactions” (PeerJ, 2021).

Where “and” joins values, the source holds several entries; their conditions need not be identical. Equal values may be shown once. Read-outs that look alike come from different tables or passages of the source.

Chain of porcine pancreatic elastase (EC.3.4.21.36) (P00772 27-266): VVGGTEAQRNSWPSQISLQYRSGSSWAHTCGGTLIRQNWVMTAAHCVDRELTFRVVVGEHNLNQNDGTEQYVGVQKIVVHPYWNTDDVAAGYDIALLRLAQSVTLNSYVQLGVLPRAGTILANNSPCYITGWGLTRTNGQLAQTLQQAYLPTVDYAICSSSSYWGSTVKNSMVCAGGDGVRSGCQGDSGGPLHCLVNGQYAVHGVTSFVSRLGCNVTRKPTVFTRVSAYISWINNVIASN
Chain of Mushroom tyrosinase (EC.1.14.18.1) (C7FF04 2-392): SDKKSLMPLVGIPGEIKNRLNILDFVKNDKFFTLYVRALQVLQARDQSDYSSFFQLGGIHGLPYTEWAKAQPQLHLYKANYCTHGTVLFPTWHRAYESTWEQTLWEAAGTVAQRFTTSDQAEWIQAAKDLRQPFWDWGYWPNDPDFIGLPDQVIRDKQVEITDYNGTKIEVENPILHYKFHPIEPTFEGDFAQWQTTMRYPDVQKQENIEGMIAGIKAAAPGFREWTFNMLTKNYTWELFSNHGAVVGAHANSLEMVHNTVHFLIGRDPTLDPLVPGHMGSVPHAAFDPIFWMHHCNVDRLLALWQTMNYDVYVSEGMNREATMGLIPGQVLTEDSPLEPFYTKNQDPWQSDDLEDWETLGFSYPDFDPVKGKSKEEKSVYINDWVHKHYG

With `OC[C@H]1O[C@@H](Oc2ccc(O)cc2)[C@H](O)[C@@H](O)[C@@H]1O` [β-Arbutin, β-arbutin, reference compound], the inhibition at 12.5 µg/mL in experiment [1] (read-out: % inhibition tyrosinase, N1-N3, conc 12.5 ug/ml, individual replicates) was found to be 31.2%; in experiment [1] (read-out: % inhibition tyrosinase, ave, conc 12.5 ug/ml), 28.8%. Further, the inhibition at 15 µg/mL was found to be 36.9% in experiment [1] (read-out: % inhibition tyrosinase, N1-N3, conc 15 ug/ml, individual replicates) and 34.8% in experiment [1] (read-out: % inhibition tyrosinase, ave, conc 15 ug/ml). Moreover, the inhibition at 25 µg/mL was 59.7% in experiment [1] (read-out: % inhibition tyrosinase, N1-N3, conc 25 ug/ml, individual replicates) and 58.8% in experiment [1] (read-out: % inhibition tyrosinase, ave, conc 25 ug/ml). Besides, the inhibition at 30 µM in experiment [1] (read-out: % inhibition tyrosinase, ave, 30 uM) worked out at 18.4%; in experiment [1] (read-out: % inhibition tyrosinase, replicates 1-3, 30 uM, individual replicates), 18.7%. For the same compound, the inhibition at 40 µM in experiment [1] (read-out: % inhibition tyrosinase, ave, 40 uM) amounted to 24.9%; in experiment [1] (read-out: % inhibition tyrosinase, replicates 1-3, 40 uM, individual replicates) it was 25.7%. The inhibition at 46 µM in experiment [1] (read-out: % inhibition tyrosinase, ave, 46 uM) worked out at 28.8%; in experiment [1] (read-out: % inhibition tyrosinase, replicates 1-3, 46 uM, individual replicates), 31.2%. Moreover, the inhibition at 50 µM in experiment [1] (read-out: % inhibition tyrosinase, ave, 50 uM) is 34.4%; in experiment [1] (read-out: % inhibition tyrosinase, replicates 1-3, 50 uM, individual replicates), 30.5%. Moreover, the inhibition at 92 µM in experiment [1] (read-out: % inhibition tyrosinase, ave, 92 uM) is 58.8%; in experiment [1] (read-out: % inhibition tyrosinase, replicates 1-3, 92 uM, individual replicates), 59.7%.

A word on the IC50: it is the concentration that inhibits the measured activity by half. In the case of `C[C@H]1[C@H](C)CC[C@]2(C(=O)O)CC[C@]3(C)C(=CC[C@@H]4[C@@]5(C)CC[C@H](O)C(C)(C)[C@@H]5CC[C@]43C)[C@H]12` [Ursolic acid, ursolic acid, reference compound], the “% inhibition elastase, replicates 1-3” value in experiment [2] (10 uM, individual replicates) is 25.34% and 30.65%; in experiment [2] (30 uM, individual replicates) it was 46.86% and 46.62%; in experiment [2] (35 uM, individual replicates) it was 50.36% and 49.93%; in experiment [2] (40 uM, individual replicates) it was 53.85% and 54.07%; in experiment [2] (50 uM, individual replicates), 74.42% and 69.89%; in experiment [2] (100 uM, individual replicates) it was 89.73% and 85.61%. Further, the inhibition at 10 µM in experiment [2] (10 uM, individual replicates, read-out: % inhibition elastase, replicates 1-3) was 26.2%; in experiment [2] (10 uM, read-out: % inhibition elastase, ave), 27.4%. For the same compound, the inhibition at 30 µM stood at 48.1% in experiment [2] (30 uM, individual replicates, read-out: % inhibition elastase, replicates 1-3) and 47.2% in experiment [2] (30 uM, read-out: % inhibition elastase, ave). The inhibition at 35 µM in experiment [2] (35 uM, individual replicates, read-out: % inhibition elastase, replicates 1-3) amounted to 51.1%; in experiment [2] (35 uM, read-out: % inhibition elastase, ave), 50.5%. The inhibition at 40 µM in experiment [2] (40 uM, individual replicates, read-out: % inhibition elastase, replicates 1-3) came to 53.2%; in experiment [2] (40 uM, read-out: % inhibition elastase, ave), 53.7%. For the same compound, the “% inhibition elastase, ave” value in experiment [2] (50 uM) is on record as 72.36%; in experiment [2] (100 uM) it was 87.51%. The inhibition at 50 µM in experiment [2] (50 uM, individual replicates, read-out: % inhibition elastase, replicates 1-3) was 72.8%; in experiment [2] (50 uM, read-out: % inhibition elastase, ave) it was 72.4%. For the same compound, the inhibition at 100 µM in experiment [2] (100 uM, individual replicates, read-out: % inhibition elastase, replicates 1-3) is 87.2%; in experiment [2] (100 uM, read-out: % inhibition elastase, ave) it was 87.5%; in experiment [2] (at 100 µmol L^−1, read-out: elastase inhibition) it was 80%. Moreover, the IC50 in experiment [2] (individual replicates, read-out: ic50 elastase, N1-N3 (converted)) is 33.2 µM and 35.1 µM and 34.5 µM; in experiment [2] (mean ± SEM, triplicate, read-out: IC50 elastase inhibition) it was 34.3 ± 0.6 µM.

`O=C(O)/C=C/c1ccc(O)c(O)c1` [Caffeic acid, caffeic acid, reference compound]: the “% inhibition collagenase, ave” value in experiment [3] (140 uM) was determined as 30.4%; in experiment [3] (280 uM), 51.1%; in experiment [3] (560 uM) it was 72.8%; in experiment [3] (conc 280 uM (14 mM is the stock sample solution)) it was 30.37%; in experiment [3] (conc 28 mM) it was 51.14%; in experiment [3] (conc 56 mM), 72.77%. Moreover, the “% inhibition collagenase, N1-N3” value in experiment [3] (conc 14 mM, individual replicates) was 37.46% and 22.54% and 31.12%; in experiment [3] (conc 28 mM, individual replicates) it was 50.5% and 50.77% and 52.14%; in experiment [3] (conc 56 mM, individual replicates), 71.84% and 74.23% and 72.24%. Further, the IC50 is 307 µM and 286 µM and 334 µM in experiment [3] (individual replicates, read-out: ic50 collagenase, N1-N3); 309 ± 13.7 µM in experiment [3] (mean ± SEM, triplicate, read-out: IC50 collagenase inhibition).
